Assay results: ChEMBL document CHEMBL4177636, “Design, synthesis, and biological evaluation of pyrrolobenzodiazepine-containing hypoxia-activated prodrugs” (Bioorg Med Chem Lett, 2017)

Columns and labels:
[1] = Prodrug activation assessed as recombinant human cytochrome P450-reductase-mediated drug metabolism by measuring (S)-7,8-dimethoxy-2-methylene-2,3-dihydro-1H-benzo[e]pyrrolo[1,2-a][1,4]diazepin-5(11aH)-one level under normoxic condition after 2 hrs by LC-MS analysis; format: ADME; conditions: recombinant enzyme
[2] = Prodrug activation assessed as recombinant human cytochrome P450-reductase-mediated drug metabolism by measuring (S)-7,8-dimethoxy-2-methylene-2,3-dihydro-1H-benzo[e]pyrrolo[1,2-a][1,4]diazepin-5(11aH)-one level under hypoxic condition after 2 hrs by LC-MS analysis; format: ADME; conditions: recombinant enzyme
[3] = Prodrug activation assessed as recombinant human cytochrome P450-reductase-mediated drug metabolism by measuring (11aS,11a'S)-8,8'-(pentane-1,5-diylbis(oxy))bis(7-methoxy-2-methylene-2,3-dihydro-1H-benzo[e]pyrrolo[1,2-a][1,4]diazepin-5(11aH)-one) level under normoxic condition after 2 hrs by LC-MS analysis; format: ADME; conditions: recombinant enzyme
[4] = Prodrug activation assessed as recombinant human cytochrome P450-reductase-mediated drug metabolism by measuring (11aS,11a'S)-8,8'-(pentane-1,5-diylbis(oxy))bis(7-methoxy-2-methylene-2,3-dihydro-1H-benzo[e]pyrrolo[1,2-a][1,4]diazepin-5(11aH)-one) level under hypoxic condition after 2 hrs by LC-MS analysis; format: ADME; conditions: recombinant enzyme
NCI-H460 [5] = assay: Cytotoxicity against human NCI-H460 cells after 24 hrs under normoxic condition by luminescence-based Cell-Titer Glo assay; conditions: NCI-H460, 24 h
[6] = Selectivity index, ratio of prodrug IC50 under normoxic condition to prodrug IC50 under hypoxic condition; format: functional
NCI-H460 [7] = assay: Cytotoxicity against human NCI-H460 cells after 24 hrs under hypoxic condition by luminescence-based Cell-Titer Glo assay; format: functional; conditions: NCI-H460, 24 h
[8] = Induction of DNA (unknown origin) alkylation assessed as amount remaining of unalkylated test oligonucleotides after 18 hrs by LC/MS/UV analysis; design: concentration or dose not given beside the values
[9] = Prodrug activation assessed as recombinant human cytochrome P450-reductase-mediated drug metabolism by measuring (S)-7,8-dimethoxy-2-(quinolin-6-yl)-1H-benzo[e]pyrrolo[1,2-a][1,4]diazepin-5(11aH)-one level under hypoxic condition after 2 hrs by LC-MS analysis; format: ADME; conditions: recombinant enzyme
[10] = Prodrug activation assessed as recombinant human cytochrome P450-reductase-mediated drug metabolism by measuring (S)-7,8-dimethoxy-2-(quinolin-6-yl)-1H-benzo[e]pyrrolo[1,2-a][1,4]diazepin-5(11aH)-one level under normoxic condition after 2 hrs by LC-MS analysis; format: ADME; conditions: recombinant enzyme

With `C=C1C[C@H]2C(O)N(C(=O)OCc3cncn3C)c3cc(OC)c(OC)cc3C(=O)N2C1` (some centres not stated) as the molecule, how does the Drug metabolism [1] read?
Its Drug metabolism is 0%.

What about the Drug metabolism [2] of the same molecule?
The Drug metabolism was 0%.

Which results are given for `C=C1C[C@H]2C=Nc3cc(OCCCCCOc4cc5c(cc4OC)C(=O)N4CC(=C)C[C@H]4C(O)N5C(=O)OCc4cncn4C)c(OC)cc3C(=O)N2C1` (some centres not stated)?
Drug metabolism [3]: 0%; Drug metabolism [4]: 0%

With `C=C1C[C@H]2C=Nc3cc(OC)c(OC)cc3C(=O)N2C1` as the molecule, how does the IC50 (NCI-H460 [5]) read?
The IC50 was 550 nM.

And the Ratio IC50 [6]?
The Ratio IC50 was 2.

And the IC50 (NCI-H460 [7])?
Its IC50 is 273 nM.

What about the Activity [8] of the same molecule?
Its Activity is 84%.

Which results are given for `C=C1C[C@H]2C=Nc3cc(OCCCCCOc4cc5c(cc4OC)C(=O)N4CC(=C)C[C@H]4C(O)N5C(=O)OCc4cnc([N+](=O)[O-])n4C)c(OC)cc3C(=O)N2C1` (some centres not stated)?
Drug metabolism [3]: 0%; IC50 (NCI-H460 [5]): 1.4 nM; Drug metabolism [4]: 0%; Ratio IC50 [6]: 1.3; IC50 (NCI-H460 [7]): 1.1 nM; Activity [8]: 92%

Which IC50 (NCI-H460 [5]) does the source give for `C=C1C[C@H]2C(O)N(C(=O)OCc3cnc([N+](=O)[O-])n3C)c3cc(OC)c(OC)cc3C(=O)N2C1` (some centres not stated) here?
The IC50 was 196000 nM.

What about the Drug metabolism [1] of the same molecule?
The Drug metabolism was 2%.

What about the Ratio IC50 [6] of the same molecule?
Its Ratio IC50 is 5.6.

What about the IC50 (NCI-H460 [7]) of the same molecule?
Its IC50 is 35000 nM.

And the Activity [8]?
The Activity was 100%.

And the Drug metabolism [2]?
The Drug metabolism was 100%.

With `Cn1c(COP(=O)(NCCBr)NCCBr)cnc1[N+](=O)[O-]` [EVOFOSFAMIDE] as the molecule, how does the IC50 (NCI-H460 [5]) read?
Its IC50 is 6650 nM.

What about the Ratio IC50 [6] of the same molecule?
The Ratio IC50 was 715.

And the IC50 (NCI-H460 [7])?
The IC50 was 9.3 nM.

Which results are given for `C=C1C[C@H]2C=Nc3cc(OCCCCCOc4cc5c(cc4OC)C(=O)N4CC(=C)C[C@H]4C=N5)c(OC)cc3C(=O)N2C1`?
IC50 (NCI-H460 [5]): 0.092 nM; Ratio IC50 [6]: 1.5; IC50 (NCI-H460 [7]): 0.062 nM; Activity [8]: 42%

With `COc1cc2c(cc1OC)C(=O)N1C=C(c3ccc4ncccc4c3)C[C@H]1C=N2` as the molecule, how does the IC50 (NCI-H460 [5]) read?
The IC50 was 0.77 nM.

What about the Ratio IC50 [6] of the same molecule?
Its Ratio IC50 is 1.4.

And the IC50 (NCI-H460 [7])?
Its IC50 is 0.54 nM.

What about the Activity [8] of the same molecule?
Its Activity is 78%.

For `COc1cc2c(cc1OC)N(C(=O)OCc1cnc([N+](=O)[O-])n1C)C(O)[C@@H]1CC(c3ccc4ncccc4c3)=CN1C2=O` (some centres not stated), which IC50 (NCI-H460 [5]) is on record?
The IC50 was 232 nM.

And the Ratio IC50 [6]?
Its Ratio IC50 is 13.6.

What about the IC50 (NCI-H460 [7]) of the same molecule?
The IC50 was 17 nM.

What about the Drug metabolism [9] of the same molecule?
Its Drug metabolism is 92%.

And the Drug metabolism [10]?
The Drug metabolism was 5%.

And the Activity [8]?
The Activity was 100%.
